Tested on: S. aureus LS-1
Assay: S. aureus infection model in mice, minimal effective dose
Assay type: in vivo
Parameters: Development of swollen joints following infection: unit not given here
Details: for Development of swollen joints following infection: mice
Experimental: In relation to the methods described in J. Med. Microbiol. 46, 208-213 (1997), compounds may be evaluated in vivo using a model S. Aureus strain LS-1 which, when injected intravenously into mice, consistently causes transient bacteraemia followed by joint localization in 3-4 days. Normal control mice show inflammation of 50-60% of their joints within 3-4 days. The severity of joint sepsis was measured using calipers to determine the diameter of the affected joints. In general, five groups of mice normally having a mean weight of between 18-28 g (5 mice per group) are used for each compound tested, wherein each group is infected with S. Aureus and then provided with a certain dose of the compound to be tested (with one group acting a control).
Determination of minimal effective dose of title compound of Example 2 in S. aureus infection model.
Mice were infected with S. aureus LS-1 (50 million cfu by iv injection) and treated with graded doses of the compound of Example 2 (iv injection within 30 minutes). Each group contained 5 mice and comprised the following.
Group 1: S. aureus LS-1 only
Group 2: S. aureus LS-1 plus 60 mg/kg of the compound of Example 2
Group 3: S. aureus LS-1 plus 40 mg/kg of the compound of Example 2
Group 4: S. aureus LS-1 plus 20 mg/kg of the compound of Example 2
Group 5: S. aureus LS-1 plus 10 mg/kg of the compound of Example 2
Mice were assessed daily for weight loss, development of swollen joints and morbidity/mortality.

Cn1cc(NC(=O)c2cc(NC(=O)c3ccc(/C=C/c4cnc5ccccc5c4)cc3)cn2C)cc1C(=O)NCCN1CCOCC1 [Example 2, 1-Methyl-4-({[1-methyl-4-({4-[(E)-2-(3-quinolinyl)ethenyl]benzoyl}amino)-1H-pyrrol-2-yl]carbonyl}amino)-N-[2-(4-morpholinyl)ethyl]-1H-pyrrole-2-carboxamide]
Weight loss of mice after infection: Mean mouse weight (g) after (Group 2, 60 mg/kg iv, Day 2): 27.1 g | Weight loss of mice after infection: Mean mouse weight (g) after (Group 2, 60 mg/kg iv, Day 5): 26.3 g | Weight loss of mice after infection: Mean mouse weight (g) after (Group 2, 60 mg/kg iv, Day 7): 26.1 g | Mortality rate of mice following infection (Group 2, 60 mg/kg iv, day 2 post infection): 0/5 | Mortality rate of mice following infection (Group 2, 60 mg/kg iv, day 3 post infection): 0/5 | Mortality rate of mice following infection (Group 2, 60 mg/kg iv, day 4 post infection): 1/5 | Mortality rate of mice following infection (Group 2, 60 mg/kg iv, day 5 post infection): 1/5 | Mortality rate of mice following infection (Group 2, 60 mg/kg iv, day 6 post infection): 1/5 | Mortality rate of mice following infection (Group 2, 60 mg/kg iv, day 7 post infection): 1/5 | Weight loss of mice after infection: Mean mouse weight (g) after (Group 3, 40 mg/kg iv, Day 2): 27.0 g | Weight loss of mice after infection: Mean mouse weight (g) after (Group 3, 40 mg/kg iv, Day 5): 26.4 g | Weight loss of mice after infection: Mean mouse weight (g) after (Group 3, 40 mg/kg iv, Day 7): 26.0 g | Mortality rate of mice following infection (Group 3, 40 mg/kg iv, day 2 post infection): 0/5 | Mortality rate of mice following infection (Group 3, 40 mg/kg iv, day 3 post infection): 0/5 | Mortality rate of mice following infection (Group 3, 40 mg/kg iv, day 4 post infection): 0/5 | Mortality rate of mice following infection (Group 3, 40 mg/kg iv, day 5 post infection): 0/5 | Mortality rate of mice following infection (Group 3, 40 mg/kg iv, day 6 post infection): 0/5 | Mortality rate of mice following infection (Group 3, 40 mg/kg iv, day 7 post infection): 0/5 | Weight loss of mice after infection: Mean mouse weight (g) after (Group 4, 20 mg/kg iv, Day 2): 27.6 g | Weight loss of mice after infection: Mean mouse weight (g) after (Group 4, 20 mg/kg iv, Day 5): 25.4 g | Weight loss of mice after infection: Mean mouse weight (g) after (Group 4, 20 mg/kg iv, Day 7): 25.1 g | Mortality rate of mice following infection (Group 4, 20 mg/kg iv, day 2 post infection): 0/5 | Mortality rate of mice following infection (Group 4, 20 mg/kg iv, day 3 post infection): 0/5 | Mortality rate of mice following infection (Group 4, 20 mg/kg iv, day 4 post infection): 0/5 | Mortality rate of mice following infection (Group 4, 20 mg/kg iv, day 5 post infection): 1/5 | Mortality rate of mice following infection (Group 4, 20 mg/kg iv, day 6 post infection): 2/5 | Mortality rate of mice following infection (Group 4, 20 mg/kg iv, day 7 post infection): 3/5 | Weight loss of mice after infection: Mean mouse weight (g) after (Group 5, 10 mg/kg iv, Day 2): 26.9 g | Weight loss of mice after infection: Mean mouse weight (g) after (Group 5, 10 mg/kg iv, Day 5): 23.0 g | Weight loss of mice after infection: Mean mouse weight (g) after (Group 5, 10 mg/kg iv, Day 7): 22.6 g | Mortality rate of mice following infection (Group 5, 10 mg/kg iv, day 2 post infection): 0/5 | Mortality rate of mice following infection (Group 5, 10 mg/kg iv, day 3 post infection): 0/5 | Mortality rate of mice following infection (Group 5, 10 mg/kg iv, day 4 post infection): 0/5 | Mortality rate of mice following infection (Group 5, 10 mg/kg iv, day 5 post infection): 0/5 | Mortality rate of mice following infection (Group 5, 10 mg/kg iv, day 6 post infection): 1/5 | Mortality rate of mice following infection (Group 5, 10 mg/kg iv, day 7 post infection): 2/5 | Development of swollen joints following infection (count n/N, Group 2, 60 mg/kg iv, day 2 post infection): 0/20 | Development of swollen joints following infection (count n/N, Group 2, 60 mg/kg iv, day 3 post infection): 0/20 | Development of swollen joints following infection (count n/N, Group 2, 60 mg/kg iv, day 4 post infection): 0/16 | Development of swollen joints following infection (count n/N, Group 2, 60 mg/kg iv, day 5 post infection): 0/16 | Development of swollen joints following infection (count n/N, Group 2, 60 mg/kg iv, day 6 post infection): 0/16 | Development of swollen joints following infection (count n/N, Group 2, 60 mg/kg iv, day 7 post infection): 0/16 | Development of swollen joints following infection (count n/N, Group 3, 40 mg/kg iv, day 2 post infection): 0/20 | Development of swollen joints following infection (count n/N, Group 3, 40 mg/kg iv, day 3 post infection): 0/20 | Development of swollen joints following infection (count n/N, Group 3, 40 mg/kg iv, day 4 post infection): 2/20 | Development of swollen joints following infection (count n/N, Group 3, 40 mg/kg iv, day 5 post infection): 3/20 | Development of swollen joints following infection (count n/N, Group 3, 40 mg/kg iv, day 6 post infection): 3/20 | Development of swollen joints following infection (count n/N, Group 3, 40 mg/kg iv, day 7 post infection): 3/20 | Development of swollen joints following infection (count n/N, Group 4, 20 mg/kg iv, day 2 post infection): 1/20 | Development of swollen joints following infection (count n/N, Group 4, 20 mg/kg iv, day 3 post infection): 1/20 | Development of swollen joints following infection (count n/N, Group 4, 20 mg/kg iv, day 4 post infection): 2/20 | Development of swollen joints following infection (count n/N, Group 4, 20 mg/kg iv, day 5 post infection): 1/16 | Development of swollen joints following infection (count n/N, Group 4, 20 mg/kg iv, day 6 post infection): 6/20 | Development of swollen joints following infection (count n/N, Group 4, 20 mg/kg iv, day 7 post infection): 4/12 | Development of swollen joints following infection (count n/N, Group 5, 10 mg/kg iv, day 2 post infection): 1/20 | Development of swollen joints following infection (count n/N, Group 5, 10 mg/kg iv, day 3 post infection): 1/20 | Development of swollen joints following infection (count n/N, Group 5, 10 mg/kg iv, day 4 post infection): 2/20 | Development of swollen joints following infection (count n/N, Group 5, 10 mg/kg iv, day 5 post infection): 2/20 | Development of swollen joints following infection (count n/N, Group 5, 10 mg/kg iv, day 6 post infection): 5/16 | Development of swollen joints following infection (count n/N, Group 5, 10 mg/kg iv, day 7 post infection): 4/12 | Development of swollen joints following infection (figure in parentheses, Group 2, 60 mg/kg iv, day 2 post infection): 0 | Development of swollen joints following infection (figure in parentheses, Group 2, 60 mg/kg iv, day 3 post infection): 0 | Development of swollen joints following infection (figure in parentheses, Group 2, 60 mg/kg iv, day 4 post infection): 0 | Development of swollen joints following infection (figure in parentheses, Group 2, 60 mg/kg iv, day 5 post infection): 0 | Development of swollen joints following infection (figure in parentheses, Group 2, 60 mg/kg iv, day 6 post infection): 0 | Development of swollen joints following infection (figure in parentheses, Group 2, 60 mg/kg iv, day 7 post infection): 0 | Development of swollen joints following infection (figure in parentheses, Group 3, 40 mg/kg iv, day 2 post infection): 0 | Development of swollen joints following infection (figure in parentheses, Group 3, 40 mg/kg iv, day 3 post infection): 0 | Development of swollen joints following infection (figure in parentheses, Group 3, 40 mg/kg iv, day 4 post infection): 10 | Development of swollen joints following infection (figure in parentheses, Group 3, 40 mg/kg iv, day 5 post infection): 15 | Development of swollen joints following infection (figure in parentheses, Group 3, 40 mg/kg iv, day 6 post infection): 15 | Development of swollen joints following infection (figure in parentheses, Group 3, 40 mg/kg iv, day 7 post infection): 15 | Development of swollen joints following infection (figure in parentheses, Group 4, 20 mg/kg iv, day 2 post infection): 5 | Development of swollen joints following infection (figure in parentheses, Group 4, 20 mg/kg iv, day 3 post infection): 5 | Development of swollen joints following infection (figure in parentheses, Group 4, 20 mg/kg iv, day 4 post infection): 10 | Development of swollen joints following infection (figure in parentheses, Group 4, 20 mg/kg iv, day 5 post infection): 6.3 | Development of swollen joints following infection (figure in parentheses, Group 4, 20 mg/kg iv, day 6 post infection): 30 | Development of swollen joints following infection (figure in parentheses, Group 4, 20 mg/kg iv, day 7 post infection): 33 | Development of swollen joints following infection (figure in parentheses, Group 5, 10 mg/kg iv, day 2 post infection): 5 | Development of swollen joints following infection (figure in parentheses, Group 5, 10 mg/kg iv, day 3 post infection): 5 | Development of swollen joints following infection (figure in parentheses, Group 5, 10 mg/kg iv, day 4 post infection): 10 | Development of swollen joints following infection (figure in parentheses, Group 5, 10 mg/kg iv, day 5 post infection): 10 | Development of swollen joints following infection (figure in parentheses, Group 5, 10 mg/kg iv, day 6 post infection): 31 | Development of swollen joints following infection (figure in parentheses, Group 5, 10 mg/kg iv, day 7 post infection): 33

Reference: US8012967B2, “Minor groove binders” (University of Strathclyde, priority 2006, dated 2011)
